# Measurements from ChEMBL document CHEMBL2073935, “Cloning and functional characterization of a rat renal organic cation transporter isoform (rOCT1A)” (J Biol Chem, 1997).
# B1: Solute carrier family 22 member 1 (Rattus norvegicus) (protein)
# chain: MPTVDDVLEQVGEFGWFQKQAFLLLCLISASLAPIYVGIVFLGFTPGHYCQNPGVAELSQRCGWSQAEELNYTVPGLGPSDEASFLSQCMRYEVDWNQSTLDCVDPLSSLVANRSQLPLGPCEHGWVYDTPGSSIVTEFNLVCGDAWKVDLFQSCVNLGFFLGSLVVGYIADRFGRKLCLLVTTLVTSVSGVLTAVAPDYTSMLLFRLLQGMVSKGSWVSGYTLITEFVGSGYRRTTAILYQMAFTVGLVGLAGVAYAIPDWRWLQLAVSLPTFLFLLYYWFVPESPRWLLSQKRTTRAVRIMEQIAQKNGKVPPADLKMLCLEEDASEKRSPSFADLFRTPNLRKHTVILMYLWFSCAVLYQGLIMHVGATGANLYLDFFYSSLVEFPAAFIILVTIDRIGRIYPIAASNLVTGAACLLMIFIPHELHWLNVTLACLGRMGATIVLQMVCLVNAELYPTFIRNLGMMVCSALCDLGGIFTPFMVFRLMEVWQALPLILFGVLGLTAGAMTLLLPETKGVALPETIEEAENLGRRKSKAKENTIYLQVQTGKSSST
# Columns and labels:
# [1] = biological target: T1, Solute carrier family 22 member 1 (Rattus norvegicus, UniProt Q63089); assay: TP_TRANSPORTER: inhibition of TEA uptake (TEA: 500 uM, PAH: 5000 uM) in OCT1A expressing Xenopus laevis oocytes; type: functional, cell-based; details: oocyte
# T1 sequence (Q63089 whole entry): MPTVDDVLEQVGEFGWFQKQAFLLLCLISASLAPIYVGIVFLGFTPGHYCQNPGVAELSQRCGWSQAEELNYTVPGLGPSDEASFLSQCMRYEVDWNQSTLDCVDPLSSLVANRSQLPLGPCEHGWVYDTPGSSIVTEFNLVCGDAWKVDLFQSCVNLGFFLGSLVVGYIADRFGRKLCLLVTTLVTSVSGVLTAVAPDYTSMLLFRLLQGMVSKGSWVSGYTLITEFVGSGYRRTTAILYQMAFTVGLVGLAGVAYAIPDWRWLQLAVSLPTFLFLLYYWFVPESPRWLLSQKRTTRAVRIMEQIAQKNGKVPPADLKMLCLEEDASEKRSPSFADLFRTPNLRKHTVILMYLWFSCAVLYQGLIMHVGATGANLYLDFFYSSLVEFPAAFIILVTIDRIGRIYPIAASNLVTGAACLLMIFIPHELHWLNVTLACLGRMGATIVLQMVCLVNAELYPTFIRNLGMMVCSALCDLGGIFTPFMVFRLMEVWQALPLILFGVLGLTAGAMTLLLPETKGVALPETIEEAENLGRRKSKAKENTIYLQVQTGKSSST
# [2] = biological target: T1, Solute carrier family 22 member 1; assay: TP_TRANSPORTER: inhibition of TEA uptake (TEA: 500 uM, Guanidine: 5000 uM) in OCT1A expressing Xenopus laevis oocytes; type: functional, cell-based; details: oocyte
# [3] = biological target: T1, Solute carrier family 22 member 1; assay: TP_TRANSPORTER: inhibition of TEA uptake (basolateral to cell) (TEA: 500 uM, NMN: 5000 uM) in OCT1A expressing Xenopus laevis oocytes; type: functional, cell-based; details: oocyte
# [4] = biological target: T1, Solute carrier family 22 member 1; assay: TP_TRANSPORTER: inhibition of TEA uptake (TEA: 500 uM, Procainamide: 5000 uM) in OCT1A expressing Xenopus laevis oocytes; type: functional, cell-based; details: oocyte
# [5] = substrate: CC[N+](CC)(CC)CC; assay: cells, lysate or membranes named
molecule,measurement,setting,value
Nc1ccc(C(=O)NCC(=O)O)cc1 [AMINOHIPPURIC ACID],Activity,[1],inhibitor [+]
N=C(N)N [GUANIDINE],Activity,[2],inhibitor [+]
CNC(=O)c1cccnc1 [NICOTINYL METHYLAMIDE],Activity,[3],inhibitor [+]
CCN(CC)CCNC(=O)c1ccc(N)cc1 [PROCAINAMIDE],Activity,[4],inhibitor [+]
B1,Km,[5],42 µM
